This passage reports glass transition temperature results from the PolyMetriX glass transition set.

The structures appear in SMILES notation.

Take `*/C(C)=C(/*)CCCCCCC` (repeat unit): the glass transition temperature turned out to be 160.00 °C.

The compound `*=Nc1ccc(/N=C(\c2ccccc2)c2ccc(C(=*)c3ccccc3)cc2)cc1` (repeat unit) came in with a glass transition temperature of 179.00 °C. `*=Nc1ccc(Cc2ccc(NC(=*)C)cc2)cc1` (repeat unit): the glass transition temperature was 142.00 °C.

`*=Nc1ccc(Cc2ccc(NC(=*)CCC)cc2)cc1` (repeat unit) yielded a glass transition temperature of 110.00 °C. Compound `*CC(*)(C)C(=O)OCCCCCCCCOc1ccc(C(=O)Oc2ccc(C(=O)/C=C/c3c(C)c4ccccc4n3CCCC)cc2)cc1` (repeat unit) gave a glass transition temperature of 69.00 °C. Turning to `*CC(*)(C)C(=O)OCCCCCCN(C)c1ccc(/N=N/c2ccc(S(C)(=O)=O)cc2)cc1` (repeat unit), the glass transition temperature worked out at 100.00 °C. The value for `*CC(*)(C)C(=O)OCCCCCCN1CCN(c2ccc(/N=N/c3ccc(C=C(C#N)C#N)cc3)cc2)CC1` (repeat unit) was 83.00 °C; that for `*CC(*)(C)C(=O)OCCCCCCOc1ccc(C(=O)Oc2ccc(/N=N/c3ccc(Br)cc3)c3ccccc23)cc1` (repeat unit) was 46.00 °C. In the case of `*CC(*)(C)C(=O)OCCCCCCOc1ccc(C(=O)Oc2ccc(/N=N/c3ccc(F)cc3)c3ccccc23)cc1` (repeat unit), the glass transition temperature is 42.00 °C. On to `*CC(*)(C)C(=O)OCCCCCCOc1ccc(C(=O)Oc2ccc(/N=N/c3ccc(I)cc3)c3ccccc23)cc1` (repeat unit), for which the glass transition temperature is 40.00 °C. Consider `*CC(*)(C)C(=O)OCCCCCCOc1ccc(C(=O)Oc2ccc(/N=N/c3ccccc3)c3ccccc23)cc1` (repeat unit), for which the glass transition temperature came to 46.00 °C. Consider `*CC(*)(C)C(=O)OCCCCCCOc1ccc(C(=O)Oc2ccc(C(=O)/C=C/c3c(C)c4ccccc4n3C)cc2)cc1` (repeat unit), for which the glass transition temperature came out at 98.00 °C.

`*CC(*)(C)C(=O)OCCCCCCOc1ccc(C(=O)Oc2ccc(C(=O)/C=C/c3c(C)c4ccccc4n3CCCC)cc2)cc1` (repeat unit) returned a glass transition temperature of 85.00 °C. In turn, `*CC(*)(C)C(=O)OCCCCCCOc1ccc(C(=O)Oc2ccc(C)cc2)cc1` (repeat unit) displayed a glass transition temperature of 45.00 °C. Turning to `*CC(*)(C)C(=O)OCCCCCCOc1ccc(C(=O)Oc2ccc(OC)cc2)cc1OC` (repeat unit), the glass transition temperature was 49.00 °C. For the compound `*CC(*)(C)C(=O)OCCCCCCOc1ccc(C(=O)Oc2ccc(OCCCC)cc2)cc1` (repeat unit), the glass transition temperature came to 49.00 °C. As for `*CC(*)(C)C(=O)OCCCCCCOc1ccc(C(=O)Oc2ccc3ccc(=O)oc3c2)cc1` (repeat unit), the glass transition temperature was found to be 102.00 °C.

As for `*CC(*)(C)C(=O)OCCCCCCOc1ccc(OC(=O)c2ccc(OC)c(Br)c2)cc1` (repeat unit), the glass transition temperature was determined as 51.00 °C.

Compound `*CC(*)(C)C(=O)OCCCCCCOc1ccc(OC(=O)c2ccc(OC)cc2)cc1` (repeat unit) registered a glass transition temperature of 38.00 °C. In turn, `*CC(*)(C)C(=O)OCCCCCCOc1cccc(C(=O)Oc2ccc(C#N)cc2)c1` (repeat unit) yielded a glass transition temperature of 38.00 °C. For `*CC(*)(C)C(=O)OCCCCCCc1ccc(/C(C)=C/c2ccc(OC)cc2)cc1` (repeat unit), the glass transition temperature turned out to be 31.00 °C. The figure for `*CC(*)(C)C(=O)OCCCCCOc1ccc(OC(=O)c2ccc(OC)cc2)cc1` (repeat unit) is 38.00 °C. For the compound `*CC(*)(C)C(=O)OCCCCCn1c2ccccc2c2ccccc21` (repeat unit), the glass transition temperature was 91.00 °C. Take `*CC(*)(C)C(=O)OCCCCOc1ccc(/N=N/c2ccc(C#N)cc2)cc1` (repeat unit): the glass transition temperature is 80.00 °C. The figure for `*CC(*)(C)C(=O)OCCCCOc1ccc(OC(=O)c2ccc(-c3ccc(OC)cc3)cc2)cc1` (repeat unit) is 77.00 °C; for `*CC(*)(C)C(=O)OCCCCOc1ccc(OC(=O)c2ccc(OCCCCCC)cc2)cc1` (repeat unit) it is 34.00 °C; for `*CC(*)(C)C(=O)OCCCCl` (repeat unit) it is 50.00 °C. On to `*CC(*)(C)C(=O)OCCCN(C)c1ccc(N(C)C)cc1` (repeat unit), for which the glass transition temperature was determined as 12.50 °C. The figure for `*CC(*)(C)C(=O)OCCCN(CCO)c1ccc(/N=N/c2ccc([N+](=O)[O-])cc2)cc1` (repeat unit) is 131.00 °C. For the compound `*CC(*)(C)C(=O)OCCCOc1ccc(-c2ccc(C#N)cc2)cc1` (repeat unit), the glass transition temperature worked out at 97.00 °C.

As for `*CC(*)(C)C(=O)OCCC[Si](OC)(OC)OC` (repeat unit), the glass transition temperature is 9.00 °C.

With `*CC(*)(C)C(=O)OCCN(C)c1ccc(/N=N/c2ccc(S(=O)(=O)Nc3cc(C)on3)cc2)cc1` (repeat unit), the glass transition temperature was found to be 123.00 °C. For `*CC(*)(C)C(=O)OCCN(C)c1ccc(N(C)C)cc1` (repeat unit), the glass transition temperature stood at 43.00 °C.

For the compound `*CC(*)(C)C(=O)OCCN(CC)CC` (repeat unit), the glass transition temperature was found to be 26.00 °C. Consider `*CC(*)(C)C(=O)OCCN(CC)c1ccc(/N=N/c2ccc(C#N)cc2)cc1` (repeat unit), for which the glass transition temperature was 119.00 °C. Compound `*CC(*)(C)C(=O)OCCN(CC)c1ccc(/N=N/c2ccc([N+](=O)[O-])c3ccccc23)cc1` (repeat unit) displayed a glass transition temperature of 116.00 °C.

`*CC(*)(C)C(=O)OCCN(CCCC)c1ccc(/N=N/c2ccc(S(=O)(=O)Nc3cc(C)on3)cc2)cc1` (repeat unit) yielded a glass transition temperature of 105.00 °C. In the case of `*CC(*)(C)C(=O)OCCOCC` (repeat unit), the glass transition temperature was -16.00 °C.

Consider `*CC(*)(C)C(=O)OCCOCCOCCOCCOCCOCCOCCOCCOC` (repeat unit), for which the glass transition temperature is -58.00 °C.

Compound `*CC(*)(C)C(=O)OCCOCC[N+](CC)(CC)CCCCS(=O)(=O)O` (repeat unit) yielded a glass transition temperature of 95.00 °C. For `*CC(*)(C)C(=O)OCCOc1ccc(/N=N/c2ccc(C#N)cc2)cc1` (repeat unit), the glass transition temperature was found to be 109.00 °C. Consider `*CC(*)(C)C(=O)OCC[N+](C)(C)CCCCS(=O)(=O)O` (repeat unit), for which the glass transition temperature turned out to be 261.00 °C.

`*CC(*)(C)C(=O)OCCc1ccc(/N=N/c2ccc(OC(F)(F)F)cc2)cc1` (repeat unit) gave a glass transition temperature of 209.50 °C.

In turn, `*CC(*)(C)C(=O)OCc1ccc(/C=C/C(=O)C2c3ccccc3C(=O)c3ccccc32)cc1` (repeat unit) showed a glass transition temperature of 163.00 °C.

As for `*CC(*)(C)C(=O)OCc1ccc(Cl)c(Cl)c1` (repeat unit), the glass transition temperature came to 34.5 °C. With `*CC(*)(C)C(=O)OCc1ccc(OCCOCCOCC)c(OCCOCCOCC)c1` (repeat unit), the glass transition temperature is -33.00 °C. The compound `*CC(*)(C)C(=O)OCc1ccc(OCCOCCOCCOCC)c(OCCOCCOCCOCC)c1` (repeat unit) came in with a glass transition temperature of -92.00 °C. Take `*CC(*)(C)C(=O)OCc1ccc2c(c1)OCCOCCOCCOCCO2` (repeat unit): the glass transition temperature is 38.00 °C. The compound `*CC(*)(C)C(=O)OCc1ccc2c(c1)c1ccccc1n2CC` (repeat unit) gave a glass transition temperature of 136.00 °C. The value for `*CC(*)(C)C(=O)OCc1ccc2c(c1)c1ccccc1n2CCCCCCCCCCCC` (repeat unit) was 25.00 °C. As to `*CC(*)(C)C(=O)OCc1ccc2c(c1)c1ccccc1n2CCCCCCCCCCCCCCCC` (repeat unit), the glass transition temperature came to 23.00 °C. `*CC(*)(C)C(=O)OCc1cccc(Cl)c1Cl` (repeat unit) yielded a glass transition temperature of 42.60 °C. The value for `*CC(*)(C)C(=O)OCc1cccs1` (repeat unit) was 66.00 °C; that for `*CC(*)(C)C(=O)Oc1c(C)cccc1C` (repeat unit) was 167.00 °C. `*CC(*)(C)C(=O)Oc1ccc(-c2nnc(-c3ccc(C(C)(C)C)cc3)o2)cc1` (repeat unit) yielded a glass transition temperature of 156.00 °C. `*CC(*)(C)C(=O)Oc1ccc(/N=N/c2ccc(OC)cc2)cc1` (repeat unit) registered a glass transition temperature of 120.00 °C. The value for `*CC(*)(C)C(=O)Oc1ccc(/N=N/c2ccc([N+](=O)[O-])cc2)cc1` (repeat unit) was 145.00 °C; that for `*CC(*)(C)C(=O)Oc1ccc(C(=O)/C=C/c2ccc(OC)c(OC)c2)cc1` (repeat unit) was 137.00 °C; that for `*CC(*)(C)C(=O)Oc1ccc(C(=O)Oc2ccc(C(=O)c3ccccc3)cc2)cc1` (repeat unit) was 72.00 °C. In turn, `*CC(*)(C)C(=O)Oc1ccc(C(=O)c2ccccc2)c(O)c1` (repeat unit) gave a glass transition temperature of 270.00 °C. As for `*N=P(Cl)(N=P(/N=S(/*)Oc1cccc(-c2ccccc2)c1)(Oc1cccc(-c2ccccc2)c1)Oc1cccc(-c2ccccc2)c1)Oc1cccc(-c2ccccc2)c1` (repeat unit), the glass transition temperature was 32.00 °C. `*N=P(N=P(N=S(*)(=O)NCCCC)(NCCCC)NCCCC)(NCCCC)NCCCC` (repeat unit): the glass transition temperature was -16.00 °C.

The compound `*N=P(N=P(N=S(*)(=O)NCCCCCC)(NCCCCCC)NCCCCCC)(NCCCCCC)NCCCCCC` (repeat unit) yielded a glass transition temperature of -18.00 °C. `*Oc1ccc(-c2ccc(Oc3ccc(/C(=N/c4ccc(/N=C(\c5ccccc5)c5ccc(*)cc5)cc4)c4ccccc4)cc3)cc2)cc1` (repeat unit) came in with a glass transition temperature of 195.00 °C. The figure for `*Oc1ccc(/C(=N/c2ccc(/N=C(\c3ccccc3)c3ccc(Oc4ccc(C(c5ccccc5)(c5ccccc5)c5ccc(*)cc5)cc4)cc3)cc2)c2ccccc2)cc1` (repeat unit) is 198.00 °C; for `*Oc1ccc(/C(C)=N/c2ccc(/N=C(\C)c3ccc(Oc4ccc(C(c5ccccc5)(c5ccccc5)c5ccc(*)cc5)cc4)cc3)cc2)cc1` (repeat unit) it is 178.00 °C; for `*Oc1ccc2ccc(Oc3ccc(/C(=N/c4ccc(/N=C(\c5ccccc5)c5ccc(*)cc5)cc4)c4ccccc4)cc3)cc2c1` (repeat unit) it is 171.00 °C.
